Reference: patent US10925965B2, “Protein formulations with increased stability” (Arecor Limited, priority 2010, dated 2021)
Read-outs that look alike come from different tables or passages of the source.

Legend:
[1] = cited from earlier work
uricase = target: T1, uricase (Cyberlindnera jadinii, UniProt P78609); assay: Stability of uricase at 60° C. (enzyme activity recovery, optical assay) with preservative and additives; type: biochemical; conditions: pH 8.0
T1 construct: purchased Sigma U0880
T1 sequence (P78609 1-303): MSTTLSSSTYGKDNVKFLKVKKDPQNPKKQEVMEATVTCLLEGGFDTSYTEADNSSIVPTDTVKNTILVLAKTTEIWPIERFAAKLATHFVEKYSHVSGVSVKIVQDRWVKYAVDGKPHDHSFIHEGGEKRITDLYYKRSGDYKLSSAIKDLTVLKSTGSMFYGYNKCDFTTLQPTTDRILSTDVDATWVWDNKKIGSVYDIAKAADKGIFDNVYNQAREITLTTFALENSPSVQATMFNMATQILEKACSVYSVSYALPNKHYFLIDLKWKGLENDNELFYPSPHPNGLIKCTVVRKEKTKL
Protocol: Uricase was obtained from Sigma (U0880). The enzyme was formulated at 100 μg/ml. Measurements of enzyme activity were performed on a 96-well plate using an optical assay: 10 μl of the formulation was mixed with […] (borate buffer 25 mM, pH 8.5) and 50 μL substrate (sodium urate 2 mM). The mixture was equilibrated at room temperature for about 5 min. After 5 min, the following reagents were added in this particular order to each sample (the first reagent must be added at exactly 5 min, the timing of the other reagents addition is less crucial): 50 μl of citrate/phosphate buffer (0.5 M. pH 4.0); 15 μL of TMB (3 mg/mL, dissolved in DMSO) then 15 μL of lactoperoxidase (1 mg/mL, dissolved in water). The resulting solution was mixed thoroughly and absorbance was read at 630 nm using a plate reader. Optical density was calibrated using a range of concentrations of a reference enzyme solution. All measurements were carried out in triplicates and average value was recorded. Stability of enzyme was found in the preliminary experiments to be optimal at pH around 8.0, with minimal effect of ionic strength on the stability. The preservation of the enzyme activity was studied in a background formulation containing 10 mM histidine and 300 mM 1,2-propanediol, adjusted to pH 8. […] The effect of the stabilizing excipients was studied by comparing the stability of uricase in the solution containing the preservative only with that in the solution containing both the preservative and the stabilizing component. The concentration of the additives tested was selected based on their solubility in aqueous solutions.

[2] = target: human growth hormone (hGH) (Homo sapiens, UniProt P01241); assay: Formation of high molecular weight species (HMWS) in aqueous hGH solutions at 40° C., size-exclusion HPLC; type: physicochemical; conditions: 10 mM benzoate anion, background solutions 1 and 2, 40° C.
Protocol: Formation of high molecular weight species (HMWS) was followed in aqueous solutions of hGH (15 mg/mL) using the following size-exclusion HPLC method: The mobile phase was prepared by mixing 97 parts (v/v) of 63 mM sodium phosphate (pH 7.0) with 3 parts (v/v) of propan-2-ol. The mobile phase was filtered prior to its use. The liquid chromatograph (Agilent 1100 series) was equipped with a 214 nm detector, guard column and a 7.8×300 mm BioSep SEC-S2000 column. The flow rate was maintained at 0.6 ml/min. 15 μl of aqueous samples of hGH were injected. The percentage of HMS was expressed as the ratio of the total area of all peaks with shorter elution time than the monomeric form of hGH versus the total peak area, ignoring peaks corresponding the excipients. The hGH solutions were incubated at 40° C. and assessed for the presence of HMWS at specific timepoints. In addition, the samples were assessed by eye for signs of visible precipitation.

[3] = test system: horseradish peroxidase (HRP); assay: Stability of horseradish peroxidase (HRP) at 60° C. (enzyme activity recovery, optical assay) with preservative and additives; type: biochemical
Protocol: HRP was obtained from Sigma (P8250), The enzyme was formulated at 0.5 mg/ml. Measurements of enzyme activity were performed on a 96-well plate using an optical assay: 20 μl of the formulation was mixed with 180 μl enzyme diluent solution (1.82 mM ABTS, 28 mM hydrogen peroxide in 0.1M sodium phosphate buffer pH 7.0). The resulting solution was mixed thoroughly and absorbance was read at 630 nm using a plate reader after 5 min. Optical density was calibrated using a range of concentrations of a reference enzyme solution. All measurements were carried out in triplicates and average value was recorded. Stability of enzyme was found in the preliminary experiments to be optimal at pH around 7.0 and relatively independent of ionic strength. The preservation of the enzyme activity was studied in background formulations containing 10 mM TRIS and 1,2-propanediol (300 mM) at pH 7.0. With the exception of control solutions, the solutions contained m-cresol (30 mM). The effect of the stabilizing excipients was studied by comparing the stability of HRP in the solution containing the preservative only with that in the solution containing both the preservative and the stabilizing component. The concentration of the additives tested was selected based on their solubility in aqueous solutions.

Sequence of human growth hormone (hGH) (P01241 27-217): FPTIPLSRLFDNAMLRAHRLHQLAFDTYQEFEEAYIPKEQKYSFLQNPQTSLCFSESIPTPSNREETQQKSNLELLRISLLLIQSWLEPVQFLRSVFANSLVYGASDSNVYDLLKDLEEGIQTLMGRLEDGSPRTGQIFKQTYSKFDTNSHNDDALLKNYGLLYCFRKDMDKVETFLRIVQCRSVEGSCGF

O=C(O)c1ccc2ccccc2c1 [2-naphthoic acid]
pKa value(s) of carboxylate group(s) ([1]; first or only value given): 4.17

O=C(O)c1cc(O)c(O)c(O)c1 [3,4,5-trihydroxybenzoic acid]
pKa value(s) of carboxylate group(s) ([1]; first or only value given): 4.41

COc1cc(C(=O)O)ccc1O [4-hydroxy-3-methoxybenzoic acid]
pKa value(s) of carboxylate group(s) ([1]; first or only value given): 4.5

OCc1ccccc1 [Benzyl alcohol]
Effect on stability of uricase at 60° C. (uricase): impairment of stability

O=C(O)C1CCCCC1 [Cyclohexane carboxylic acid, reference compound]
Effect on stability of uricase at 60° C. (uricase): increase in the destabilising effect

Oc1ccccc1 [Phenol]
Effect on stability of uricase at 60° C. (uricase): impairment of stability

O=C([O-])c1ccccc1.[K+] [benzoate anion, potassium benzoate]
Effect on rate of HMWS formation [2]: lower rate of HMWS formation

O=C(O)/C=C\c1ccccc1 [cis-cinnamic acid]
pKa value(s) of carboxylate group(s) ([1]; first or only value given): 3.89

O=C(O)Cc1c[nH]c2ccccc12 [indole-3-acetic acid]
pKa value(s) of carboxylate group(s) ([1]; first or only value given): 4.75

Cc1cccc(O)c1 [m-Cresol]
Effect on stability of HRP at 60° C. ([3]; 60° C., pH 7.0): slight impairment of stability

O=C(O)c1ccccc1C(=O)O [phthalic acid]
pKa value(s) of carboxylate group(s) ([1]; second value printed (second carboxylate group)): 5.28

HRP: HRP obtained from Sigma (P8250), formulated at 0.5 mg/ml
pH of optimal stability of enzyme ([3]; preliminary experiments): around 7.0
